Test results from ChEMBL document CHEMBL3507680, “University of Dundee, Gates Library screen for HepG2 cell viability”.

assay: Human HepG2 cell viability assay in 384 well format; format: toxicity, cell-based; set-up: dose 125 nL, time 70.5 hour; cytotoxicity at 70.5 h: concentration not given beside the values; conditions: HepG2 cells, read-out: Inhibition

| SMILES | cytotoxicity at 70.5 h [%] |
| --- | --- |
| Cc1ccccc1C(=O)N1CC[C@@H](N(C)C)[C@@H]1Cc1cnn(C)c1 | 25.4 |
| COc1ccc(C)cc1C(=O)N1C[C@@H](CN(C)CCO)[C@@H](CO)C1 | 0.0463 |
| COCC1COCCC12CCN(C(=O)Cc1cccc(OC)c1)CC2 (centres undefined) | -11.4 |
| CC(=O)Nc1nc(C(=O)NCCOc2ccc(C)cc2)cs1 | 13.3 |
| COCCCN(Cc1cnc(-c2ccccn2)nc1)C1CCN(C)CC1 | -22.2 |
| C=C(C)COc1cccc(CNCc2nc3ccccc3c(=O)[nH]2)c1 | 0.0265 |
| COC[C@]1(O)CCN(Cc2ccc(N(C)C)nc2)CC1(C)C | -17.9 |
| CS(=O)(=O)N1CCC(Cc2cnc(Br)cn2)C1 (centres undefined) | 45.3 |
| COCc1nnc(NC(=O)c2cn(C(C)C)c3ccc(OC)cc23)s1 | -10.1 |
| Cc1cnccc1CNCc1ccc(OC23CCCN(CC2)C3)cc1 (centres undefined) | -6.06 |
| CC(C)C(c1cccnc1)N(C)C(=O)Cc1ccc(O)cc1 (centres undefined) | 0.393 |
| CC(C)C(NC(=O)C1CCCC1)c1cc(O)nc(-c2cccnc2)n1 (centres undefined) | 11 |
| Cc1ccc(NC(=O)N2CCOC(C)C2)cc1Cl (centres undefined) | -7.15 |
| CC(=O)N[C@@H]1CN(C(=O)c2cc(C)oc2C)C[C@H]1c1ccc(C)o1 | 23.3 |
| Cn1nc(Cn2cccn2)c2c1CN(C1CCOCC1)C2 | -0.608 |
| O=C([C@H]1C[C@H]2OCC[C@H]2N(Cc2ccncc2)C1)N1CCCCO1 | -0.173 |
| CC(C)CNC(=O)CNc1c(NCc2ccccn2)c(=O)c1=O | 2.45 |
| Cc1nc(C2CN(C)CCO2)cc(N2CCC(C(N)=O)CC2)n1 (centres undefined) | -10.6 |
| OCC1CCCN1c1cc(NCCc2ccsc2)ncn1 (centres undefined) | -15.1 |
| COCCn1cncc1-c1nc2c([nH]1)CC(C)(C)CNC2=O | -4.1 |
| N#CCCN(C(=O)CCc1cscn1)c1ccc2c(c1)OCCO2 | 16.5 |
| COc1cc(CN(C)C(=O)NCCC(=O)NC2CCCC2)ccc1SC | 14.4 |

| SMILES | cytotoxicity at 70.5 h [%] |
| --- | --- |
| CS(=O)(=O)Cc1nc(CN2CCOc3ccccc3C2)cs1 | -6.97 |
| O=C1NCCN(C(=O)c2cn3ccsc3n2)C1c1cccc(F)c1 (centres undefined) | 25.9 |
| O=C1N(c2ccc(Cl)cc2)Cc2n[nH]c(=O)n21 | -2.4 |
| CCCn1ccc(C(=O)N2CCC(C)CC2)n1 | -11.6 |
| CN(Cc1cc(F)cc2cccnc12)CC1CCN(CCO)CC1 | -8.39 |
| Cc1cc(NC(=O)Cn2ccc(=O)c3ccccc32)[nH]n1 | -3.31 |
| CN(CC(F)(F)F)C(=O)C1CSCN1C(=O)OC(C)(C)C (centres undefined) | 4.04 |
| CN(C)c1cc(C2CCCN2C(=O)c2ccc(=O)n(C)c2)ccn1 (centres undefined) | -7.99 |
| CC(=O)N1CCN2C[C@H](CO)[C@@H](c3ccccc3)[C@H]2C1 | -6.55 |
| O=C(c1ccccc1)N1CCN(CC2CCOc3ccccc3C2)CC1 (centres undefined) | -2.76 |
| NCc1cnc(Nc2ccccc2)nc1 | -17.3 |
| Nc1nc(C(=O)NCC2CCC3(CCNCC3)CO2)cs1 (centres undefined) | -13.9 |
| CC(C)N1CCC(CC(=O)NCC2OCCc3ccccc32)CC1 (centres undefined) | -9.87 |
| CCOCc1nc2c(c(NCCNC(C)=O)n1)CCN(C(C)=O)CC2 | 16.6 |
| COc1ccc(CN2CC[C@@H](N)[C@@H](OC)C2)cc1Cn1cncn1 | -6.47 |
| CC1C(=O)NCCN1CCOc1ccc(C#N)cc1 (centres undefined) | -21.1 |
| c1c(CN2CCCCC2)nc2n1CCN(CC1CC1)C2 | 0.696 |
| Cc1noc(C)c1CS(=O)(=O)CC(=O)N1CCc2sccc2C1 | -3.02 |
| c1ccc(-c2noc(CN3CCc4cncnc4C3)n2)nc1 | -9.29 |
| OCCCNc1cccc(COC2CCCCC2)c1 | 21 |
| CCn1ncc(S(=O)(=O)N[C@@H]2CC[C@@H](n3ccnc3C)[C@@H]2O)c1C | -5.15 |
| COc1ccccc1-c1ncc(CN2C[C@@H](N(C)C)[C@H](C(C)C)C2)s1 | -5.83 |

| SMILES | cytotoxicity at 70.5 h [%] |
| --- | --- |
| O=C(Nc1cnccn1)[C@@H]1CC[C@@H]2[C@@H](CCN2Cc2nccs2)O1 | -4.62 |
| Cc1noc(C2CCCN(C(=O)c3cncc(Br)c3)C2)n1 (centres undefined) | -10.8 |
| CN(CCc1ccccn1)c1cnn(C)c(=O)c1Br | -11.5 |
| CC1CCCN(c2ncc(-c3ccccc3F)c(-c3nccn3C)n2)C1 (centres undefined) | -12.5 |
| CSCC[C@H]1CN2CCC[C@H]2CN1Cc1coc2ccc(C)cc2c1=O | 1.94 |
| Cc1ccc(S(=O)(=O)N2CCC3(CC(C(=O)NCC4CC4)=NO3)C2)cc1 (centres undefined) | -8.09 |
| O=C(NCC1CCOCC1)[C@H]1C[C@@H]2CCN(c3nncs3)C[C@@H]2O1 | -9.76 |
| CN(Cc1ccc2c(c1)OCCO2)Cc1nc2c(cnn2C)c(=O)[nH]1 | -5.53 |
| Cc1cc(C)n(CC2CCCN2C(=O)Cc2cn3ccsc3n2)n1 (centres undefined) | -12.4 |
| O=C(NCCn1nc2ccccn2c1=O)c1cc(C2CC2)[nH]n1 | 2.27 |
| O=C(Cn1ccc2ccc(Cl)cc21)NCc1ccc(C(=O)O)cc1 | -2.47 |
| COC1COC2(CCN(Cc3ccccc3Cl)CC2)C1 (centres undefined) | -14.5 |
| OC(CN1CCC(c2ccn[nH]2)CC1)c1ccccc1F (centres undefined) | -4.73 |
| O=S(=O)(N[C@@H]1CCO[C@]2(CCN(CC3CCOCC3)C2)C1)C1CC1 | -8.9 |
| c1ccc(Cc2noc(CN3CCCC3Cn3cccn3)n2)cc1 (centres undefined) | -7.45 |
| CN(Cc1cccnc1)C1CC2(CCN(C(=O)c3ccnnc3)CC2)C1 | -13.1 |
| CNC(=O)[C@@H]1C[C@H]2CN(C(=O)c3ccco3)C[C@H]2N1C | 2.59 |
| Cc1cccc(CN2CCC3(CCN(c4ncccn4)C3)C2=O)c1 (centres undefined) | -8.75 |
| CCS(=O)(=O)N1CCOC2(CCCN(c3ccc(C)nn3)C2)C1 (centres undefined) | -11.8 |
| CC1(C)CN(C(=O)CC2CCS(=O)(=O)CC2)C[C@]1(C)O | -4.68 |
| Cc1n[nH]c(CN2CCN(C(=O)C3CCC3)[C@@H]3CS(=O)(=O)C[C@@H]32)n1 | 0.743 |
| CSCc1nc(CCNC(=O)C2CCCN(C(C)=O)C2)cs1 (centres undefined) | -2.37 |

| SMILES | cytotoxicity at 70.5 h [%] |
| --- | --- |
| CCS(=O)(=O)Nc1ccc(C(=O)NCCCN2CCCC2)cc1 | -4.61 |
| CN(C)CCN(CC1CCCO1)C(=O)Cc1cn2ccccc2n1 (centres undefined) | 17.3 |
| CC(C)(O)CCc1ccc(C(=O)N2Cc3cnn(CCO)c3C2)cc1 | -11.3 |
| Cc1noc(C)c1CN1C[C@@H](C(=O)O)[C@H](C(C)C)C1 | -10 |
| CC(C)N1CCCCC1c1cc(CO)[nH]n1 (centres undefined) | -3.81 |
| Nc1nccc(N[C@H]2CN(CC(=O)NC3CCCCC3)C[C@@H]2C2CC2)n1 | 5.92 |
| O=C1c2cc(Br)cc(Br)c2OCC1(CN1CCCC1)CN1CCCC1 | -1.34 |
| O=C(c1cccn1-c1ccc2c(c1)OCCO2)N1CCCC1 | -11.9 |
| O=C(CN1CCCc2cc(F)cc(F)c21)Nc1ccc(Br)cn1 | -3.51 |
| Cc1ccc(CN2CC[C@H]3[C@H]2CCN3S(=O)(=O)C2CC2)cc1 | -6.33 |
| COc1ccnc(CN2CCC(O)(c3ccc(C)cn3)CC2)c1OC | -5.69 |
| O=C(CN1C[C@H]2C[C@H](OCc3ccccc3)C[C@H]2C1)N1CCOCC1 | -4.18 |
| Cc1cc(C[C@@H]2COC[C@H]2NCc2ccc(Br)s2)on1 | 22.3 |
| CC(C)NS(=O)(=O)c1ccccc1CNCc1cccc(O)c1 | -3.47 |
| Cn1c(SCc2noc(-c3ccsc3)n2)nnc1C1CCS(=O)(=O)C1 (centres undefined) | -4.08 |
| CN1CCC(N(C)C[C@H]2CC[C@@H](Cc3ccc4c(cnn4C)c3)O2)CC1 | -7.57 |
| CC(C)c1ccc(C#N)c(N2CC(C)(C)[C@@](C)(O)C2)n1 | -17.8 |
| Cn1ncc2c(N3CCS(=O)(=O)CC3)nc(C3CCCC3)nc21 | -6 |
| O=C(O)[C@@H]1CN(Cc2c[nH]c(CC3CCCC3)n2)C[C@H]1c1ccncc1 | -4.68 |
| O=C(CO)N1CCCC(c2cc(C(F)(F)F)[nH]n2)C1 (centres undefined) | -2.3 |
| Cc1noc(C)c1CN1CC[C@H]2OCC[C@@H](C(=O)NCC3CC3)[C@@H]2C1 | -3.12 |
| Cc1ccc(N2CCCc3sc(C(=O)NCc4cccnc4)nc32)nn1 | -10.4 |

| SMILES | cytotoxicity at 70.5 h [%] |
| --- | --- |
| O=C(Cn1ccc2ccc(Br)cc21)NCc1ccc(C(=O)O)cc1 | -6.34 |
| COCc1cc(C[C@@H]2CC[C@H](O)[C@@H](CN(CC(C)C)CC(C)C)O2)no1 | -0.301 |
| Cc1cc(C)n(C2CCCN(C(=O)Cc3cccc(F)c3)C2)n1 (centres undefined) | -9.48 |
| CC(Cn1ccnc1)NC(=O)NCCc1ccc2c(c1)OCCO2 (centres undefined) | 13.3 |
| O=C(O)c1cc(S(=O)(=O)N2CCOc3ccccc32)ccc1Br | -2.35 |
| COc1cc(CN2CCCC2)ccc1Oc1ncccc1C(F)(F)F | 28.7 |
| CN(Cc1ccccc1-n1cccn1)c1nc(N)nc2c1CCNCC2 | 4.77 |
| Cc1cccc(N2CCc3ncc(CNS(C)(=O)=O)n3CC2)n1 | -11.6 |
| C=Cc1cccc(CN2C[C@@H](CN(C)CC)[C@@H](CO)C2)c1 | 3.14 |
| CC(=O)N1CCN(Cc2ccc(F)cc2)CC2(CC(=O)N(C)C2)C1 (centres undefined) | 23.3 |
| CN(C)CCN1CCC2(CCN(C(=O)c3ccncc3)CC2)C1=O | -7.69 |
| Cc1noc(-c2ccc(N3CCCC(C(N)=O)C3)nc2)n1 (centres undefined) | -0.883 |
| CC1CN(CC(=O)NCc2ccccc2)CCN1Cc1nccn1C (centres undefined) | 0.503 |
| Cc1ccc(CN2CC(C(=O)Nc3ccccc3)C3(CCOCC3)C2)o1 (centres undefined) | -12.3 |
| CC(c1nc(C2CC2)no1)N(C)Cc1cccc(F)c1 (centres undefined) | -2.41 |
| CC(O)CN(C)C(=O)Nc1ccn(-c2cccc(C(F)(F)F)c2)n1 (centres undefined) | -3.19 |
| O=C1C[C@H]2[C@@H](CCN2C(=O)Cc2ccsc2)N1Cc1cccnc1 | -3.76 |
| CN(C(=O)COc1ccc(F)cc1)[C@@H]1CS(=O)(=O)C[C@H]1O | -0.138 |
| Cc1cc(S(=O)(=O)N2CCCc3cc(F)c(F)cc32)sc1C(=O)O | -1.45 |
| CNC(=O)COC1COC2(CCN(c3ccc(C#N)cc3)CC2)C1 (centres undefined) | -5.98 |
| COCC1CC2(CCN(Cc3ccc(C)o3)CC2)CN1C(C)C (centres undefined) | -3.1 |
